Results as given in US10906873B2, “Substituted cyclic amides as herbicides” (FMC Corporation, priority 2015, dated 2021).

Key:
Type in all cases: in vivo
[1] = tested on: barnyardgrass (Echinochloa crus-galli); experiment: Test A preemergence, barnyardgrass; conditions: 0 to 100 scale
Description: (§1) Seeds of plant species selected from barnyardgrass (Echinochloa crus-galli), crabgrass (large crabgrass, Digitaria sanguinalis), kochia (Kochia scoparia), ragweed (common ragweed, Ambrosia elatior), morningglory (Ipomoea spp.), velvetleaf (Abutilon theophrasti), ryegrass, It. (Italian ryegrass, Lolium multiflorum), foxtail, giant (giant foxtail, Setaria faberii), wheat (Triticum aestivum), corn (Zea mays), and pigweed (Amaranthus retroflexus), were planted into a blend of loam soil and sand and treated preemergence with a directed soil spray using test chemicals formulated in a non-phytotoxic solvent mixture which included a surfactant. At the same time, plants selected from these crop and weed species and also blackgrass (Alopecurus myosuroides), and galium (catchweed bedstraw, Galium aparine), were planted in pots containing the same blend of loam soil and sand and treated with postemergence applications of test chemicals formulated in the same manner. Plants ranged in height from 2 to 10 cm and were in the one- to two-leaf stage for the postemergence treatment. Treated plants and untreated controls were maintained in a greenhouse for approximately 10 d, after which time all treated plants were compared to untreated controls and visually evaluated for injury. Plant response ratings, summarized in Table A, are based on a 0 to 100 scale where 0 is no effect and 100 is complete control. A dash (-) response means no test result.

kochia (Kochia scoparia) [2] = experiment: Test A preemergence, kochia; conditions: 0 to 100 scale
Description: as §1

[3] = tested on: ragweed (common ragweed, Ambrosia elatior); experiment: Test A preemergence, ragweed; conditions: 0 to 100 scale
Description: as §1

[4] = tested on: ryegrass, It. (Italian ryegrass, Lolium multiflorum); experiment: Test A preemergence, ryegrass, It.; conditions: 0 to 100 scale
Description: as §1

[5] = tested on: foxtail, giant (giant foxtail, Setaria faberii); experiment: Test A preemergence, foxtail, giant; conditions: 0 to 100 scale
Description: as §1

[6] = tested on: pigweed (Amaranthus retroflexus); experiment: Test A preemergence, pigweed; conditions: 0 to 100 scale
Description: as §1

[7] = tested on: barnyardgrass (Echinochloa crus-galli); experiment: Test A postemergence, barnyardgrass; conditions: 0 to 100 scale
Description: as §1

kochia (Kochia scoparia) [8] = experiment: Test A postemergence, kochia; conditions: 0 to 100 scale
Description: as §1

[9] = tested on: ragweed (common ragweed, Ambrosia elatior); experiment: Test A postemergence, ragweed; conditions: 0 to 100 scale
Description: as §1

[10] = tested on: ryegrass, It. (Italian ryegrass, Lolium multiflorum); experiment: Test A postemergence, ryegrass, It.; conditions: 0 to 100 scale
Description: as §1

[11] = tested on: foxtail, giant (giant foxtail, Setaria faberii); experiment: Test A postemergence, foxtail, giant; conditions: 0 to 100 scale
Description: as §1

[12] = tested on: wheat (Triticum aestivum); experiment: Test A postemergence, wheat; conditions: 0 to 100 scale
Description: as §1

corn (Zea mays) = experiment: Test A postemergence, corn; conditions: 0 to 100 scale
Description: as §1

[13] = tested on: pigweed (Amaranthus retroflexus); experiment: Test A postemergence, pigweed; conditions: 0 to 100 scale
Description: as §1

[14] = tested on: blackgrass (Alopecurus myosuroides); experiment: Test A postemergence, blackgrass; conditions: 0 to 100 scale
Description: as §1

[15] = tested on: galium (catchweed bedstraw, Galium aparine); experiment: Test A postemergence, galium; conditions: 0 to 100 scale
Description: as §1

[16] = tested on: barnyardgrass (Echinochloa crus-galli); experiment: Test B flooded paddy test, barnyardgrass; conditions: Flood, 500 g ai/ha; scale of 0 to 100 where 0 is no effect and 100 is complete control; 13 to 15 d
Method: (§2) Plant species in the flooded paddy test selected from rice (Oryza sativa), sedge, umbrella (small-flower umbrella sedge, Cyperus difformis), ducksalad (Heteranthera limosa), and barnyardgrass (Echinochloa crus-galli) were grown to the 2-leaf stage for testing. At time of treatment, test pots were flooded to 3 cm above the soil surface, treated by application of test compounds directly to the paddy water, and then maintained at that water depth for the duration of the test. Treated plants and controls were maintained in a greenhouse for 13 to 15 d, after which time all species were compared to controls and visually evaluated. Plant response ratings, summarized in Table B, are based on a scale of 0 to 100 where 0 is no effect and 100 is complete control. A dash (-) response means no test result.

[17] = tested on: ducksalad (Heteranthera limosa); experiment: Test B flooded paddy test, ducksalad; conditions: Flood, 500 g ai/ha; scale of 0 to 100 where 0 is no effect and 100 is complete control; 13 to 15 d
Method: as §2

rice (Oryza sativa) = experiment: Test B flooded paddy test, rice; conditions: Flood, 500 g ai/ha; scale of 0 to 100 where 0 is no effect and 100 is complete control; 13 to 15 d
Method: as §2

[18] = tested on: sedge, umbrella (small-flower umbrella sedge, Cyperus difformis); experiment: Test B flooded paddy test, sedge, umbrella; conditions: Flood, 500 g ai/ha; scale of 0 to 100 where 0 is no effect and 100 is complete control; 13 to 15 d
Method: as §2

SMILES	Plant response rating, Barnyardgrass ([1]; 125 g ai/ha)	Plant response rating, Barnyardgrass ([1]; 500 g ai/ha)	Plant response rating, Kochia (kochia (Kochia scoparia) [2]; 125 g ai/ha)	Plant response rating, Kochia (kochia (Kochia scoparia) [2]; 500 g ai/ha)	Plant response rating, Ragweed ([3]; 125 g ai/ha)	Plant response rating, Ragweed ([3]; 500 g ai/ha)	Plant response rating, Ryegrass, It. ([4]; 125 g ai/ha)	Plant response rating, Ryegrass, It. ([4]; 500 g ai/ha)	Plant response rating, Foxtail, Giant ([5]; 125 g ai/ha)	Plant response rating, Foxtail, Giant ([5]; 500 g ai/ha)	Plant response rating, Pigweed ([6]; 125 g ai/ha)	Plant response rating, Pigweed ([6]; 500 g ai/ha)	Plant response rating, Barnyardgrass ([7]; 125 g ai/ha)	Plant response rating, Barnyardgrass ([7]; 500 g ai/ha)	Plant response rating, Kochia (kochia (Kochia scoparia) [8]; 125 g ai/ha)	Plant response rating, Kochia (kochia (Kochia scoparia) [8]; 500 g ai/ha)	Plant response rating, Ragweed ([9]; 125 g ai/ha)	Plant response rating, Ragweed ([9]; 500 g ai/ha)	Plant response rating, Ryegrass, It. ([10]; 125 g ai/ha)	Plant response rating, Ryegrass, It. ([10]; 500 g ai/ha)	also measured
O=C1NCC(Cc2ccccc2C(F)(F)F)C1C(=O)Nc1cccc(F)c1F (stereo not drawn) [Compound 9]	0	50	0	50	0	30	0	0	0	50	0	0	10	60	0	30	0	0	0	0	Plant response rating, Foxtail, Giant ([11]; 125 g ai/ha): 0; Plant response rating, Foxtail, Giant ([11]; 500 g ai/ha): 0; Plant response rating, Wheat ([12]; 125 g ai/ha): 0; Plant response rating, Wheat ([12]; 500 g ai/ha): 0; Plant response rating, Corn (corn (Zea mays); 125 g ai/ha): 0; Plant response rating, Corn (corn (Zea mays); 500 g ai/ha): 0; Plant response rating, Pigweed ([13]; 125 g ai/ha): 0; Plant response rating, Pigweed ([13]; 500 g ai/ha): 0; Plant response rating, Blackgrass ([14]; 125 g ai/ha): 0; Plant response rating, Blackgrass ([14]; 500 g ai/ha): 0; Plant response rating, Galium ([15]; 125 g ai/ha): 0; Plant response rating, Galium ([15]; 500 g ai/ha): 0; Plant response rating, Barnyardgrass [16]: 0; Plant response rating, Ducksalad [17]: 40; Plant response rating, Rice (rice (Oryza sativa)): 0; Plant response rating, Sedge, Umbrella [18]: 0
O=C1NCC(Cc2cccc(F)c2F)C1C(=O)Nc1ccccc1C(F)(F)F (stereo not drawn) [Compound 10]	0	0	0	0	0	0	0	0	0	0	0	0	0	0	0	0	0	0	0	0	Plant response rating, Foxtail, Giant ([11]; 125 g ai/ha): 0; Plant response rating, Foxtail, Giant ([11]; 500 g ai/ha): 0; Plant response rating, Wheat ([12]; 125 g ai/ha): 0; Plant response rating, Wheat ([12]; 500 g ai/ha): 0; Plant response rating, Corn (corn (Zea mays); 125 g ai/ha): 0; Plant response rating, Corn (corn (Zea mays); 500 g ai/ha): 0; Plant response rating, Pigweed ([13]; 125 g ai/ha): 0; Plant response rating, Pigweed ([13]; 500 g ai/ha): 0; Plant response rating, Blackgrass ([14]; 125 g ai/ha): 0; Plant response rating, Blackgrass ([14]; 500 g ai/ha): 0; Plant response rating, Galium ([15]; 125 g ai/ha): 0; Plant response rating, Galium ([15]; 500 g ai/ha): 0; Plant response rating, Barnyardgrass [16]: 0; Plant response rating, Ducksalad [17]: 0; Plant response rating, Rice (rice (Oryza sativa)): 0; Plant response rating, Sedge, Umbrella [18]: 0
O=C1NCC(Cc2cccc(C(F)(F)F)c2)C1C(=O)Nc1cccc(F)c1F (stereo not drawn) [Compound 11]	0	0	0	0	0	0	0	0	0	0	0	0	0	0	0	0	0	0	0	0	Plant response rating, Foxtail, Giant ([11]; 125 g ai/ha): 0; Plant response rating, Foxtail, Giant ([11]; 500 g ai/ha): 0; Plant response rating, Wheat ([12]; 125 g ai/ha): 0; Plant response rating, Wheat ([12]; 500 g ai/ha): 0; Plant response rating, Corn (corn (Zea mays); 125 g ai/ha): 0; Plant response rating, Corn (corn (Zea mays); 500 g ai/ha): 0; Plant response rating, Pigweed ([13]; 125 g ai/ha): 0; Plant response rating, Pigweed ([13]; 500 g ai/ha): 0; Plant response rating, Blackgrass ([14]; 125 g ai/ha): 0; Plant response rating, Blackgrass ([14]; 500 g ai/ha): 0; Plant response rating, Galium ([15]; 125 g ai/ha): 0; Plant response rating, Galium ([15]; 500 g ai/ha): 0; Plant response rating, Barnyardgrass [16]: 0; Plant response rating, Ducksalad [17]: 0; Plant response rating, Rice (rice (Oryza sativa)): 0; Plant response rating, Sedge, Umbrella [18]: 0
